Results: patent US20260285853A1, “COMPOUNDS AND METHODS FOR MODULATING SPLICING” (REMIX THERAPEUTICS INC., priority 2023, published 2026)
pIC50: −log10 of the molar value. Counter-ions that a name gives are not always drawn. Like-named read-outs stand apart in the source and are kept apart here.

Tests used:
Assay type in all cases: cell-based
[1] = test system: SH-SY5Y (human neuroblastoma) cells; assay: Cell viability, Cell Titer Glo 2.0 assay; conditions: read-out: Viability SHSY5Y.3 GI50
In short: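 SH-SY5Y cells were exposed to serially diluted compounds in IMDM with 10% FBS and 0.1% DMSO for 72 hours at 37° C., 5% CO2. Viability was measured by CellTiter-Glo 2.0 luminescence, with medium-only wells as blank.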

[2] = test system: MYB mRNA; assay: Gene panel canonical junction qPCR assay, decrease in CJ mRNA, Table 3
In short: (§1)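 Canonical exon-junction (CJ) transcript measured by 5′ nuclease RT-qPCR, normalized to GAPDH, GUSB or PPIA and to DMSO control (2^(−ΔΔCt)). A673 or K562 cells treated 24 h at 37° C with an 11-point 3-fold dilution series, top 10 uM, DMSO ≤0.25%. IC50 from 4-parameter logistic fit of percentage CJ decrease.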

[3] = test system: HTT mRNA; assay: as above
In short: as §1

[4] = test system: HTT mRNA; assay: Splicing RT-qPCR assay (THP), Table 2A
[5] = test system: MYB mRNA; assay: Splicing RT-qPCR assay (THP), Table 2A
[6] = decrease in canonical junction (CJ) mRNA, gene panel qPCR, Table 3
[7] = Table 2A (THP), AJ mRNA increase, read-out: HTT AJ (increase in alternative junction mRNA, AC50)
[8] = Table 2A (THP), CJ mRNA decrease, read-out: HTT CJ (decrease in canonical junction mRNA, IC50)
[9] = Table 2A (THP), AJ mRNA increase, read-out: MYB AJ (increase in alternative junction mRNA, AC50)
[10] = Table 2A (THP), CJ mRNA decrease, read-out: MYB CJ (decrease in canonical junction mRNA, IC50)
[11] = decrease in CJ mRNA levels, canonical junction qPCR, gene panel
[12] = Table 2A, THP, HTT alternative junction (AJ) mRNA, read-out: HTT AJ (AC50, increase in alternative junction mRNA)
[13] = Table 2A, THP, HTT canonical junction (CJ) mRNA, read-out: HTT CJ (IC50, decrease in canonical junction mRNA)
[14] = Table 2A, THP, MYB alternative junction (AJ) mRNA, read-out: MYB AJ (AC50, increase in alternative junction mRNA)
[15] = Table 2A, THP, MYB canonical junction (CJ) mRNA, read-out: MYB CJ (IC50, decrease in canonical junction mRNA)

| SMILES | GI50 [1] [µM] | pIC50 [2, 6] | pIC50 [3, 6] | pIC50 [4, 8] | pIC50 [5, 10] | pIC50 [2, 11] | pIC50 [3, 11] | pIC50 [4, 13] | pIC50 [5, 15] | AC50 [4, 7] [µM] | AC50 [5, 9] [µM] | AC50 [4, 12] [µM] | AC50 [5, 14] [µM] |
| --- | --- | --- | --- | --- | --- | --- | --- | --- | --- | --- | --- | --- | --- |
| Cc1cn2cc(NC(=O)c3ccc(N4CCC(N(C)C)CC4)c4cn(C)nc34)nc2c(CNS(C)(=O)=O)n1 [Compound 851] | > 10 |  |  |  |  | < 5.00 | < 5.00 | < 5.00 | < 5.00 |  |  | > 10 | > 10 |
| Cc1cn2cc(NC(=O)c3ccc(N4CCCC(OC5CNC5)C4)c4cn(C)nc34)nc2c(C)n1 (stereo not drawn) [Compound 601] | > 10 | < 5.00 | < 5.00 |  |  |  |  | < 5.00 | < 5.00 |  |  | > 10 | 1 to 10 |
| Cc1cn2cc(NC(=O)c3ccc(N4CCC(N)CC4)c4cn(C)nc34)nc2c(CNS(C)(=O)=O)n1 [Compound 865, 4-(4-amino-1-piperidyl)-N-[8-(methanesulfonamidomethyl)-6-methyl-imidazo[1,2-a]pyrazin-2-yl]-2-methyl-indazole-7-carboxamide] | > 10 |  |  |  |  | 5.00 to 6.00 | < 5.00 | < 5.00 | 5.00 to 6.00 |  |  | > 10 | 1 to 10 |
| CCNC1CCN(c2cc(OC)c(C(=O)Nc3cn4cc(C)nc(C)c4n3)c3nn(C)cc23)CC1 [Compound 333, N-(6,8-dimethylimidazo[1,2-a]pyrazin-2-yl)-4-[4-(ethylamino)-1-piperidyl]-6-methoxy-2-methyl-indazole-7-carboxamide] | > 10 | < 5.00 | < 5.00 | < 5.00 | < 5.00 |  |  |  |  | > 10 | > 10 |  |  |
| CNc1cc(N2CCC(NC3CC3)CC2)c2cn(C)nc2c1C(=O)Nc1cc2cn(C)nc2cc1OC [Compound 435, 2,2,2-trifluoroacetate] | 1 to 10 | < 5.00 | < 5.00 | < 5.00 | < 5.00 |  |  |  |  | > 10 | > 10 |  |  |
| CCNC1CCN(c2cc(F)c(C(=O)Nc3cn4cc(C5CC5)nc(C)c4n3)c3nn(C)cc23)CC1 [Compound 346, N-(6-cyclopropyl-8-methyl-imidazo[1,2-a]pyrazin-2-yl)-4-(4-(ethylamino)-piperidin-1-yl)-6-fluoro-2-methyl-2H-indazole-7-carboxamide bis(2,2,2-trifluoroacetate)] | 1 to 10 | < 5.00 | < 5.00 | < 5.00 | < 5.00 |  |  |  |  | > 10 | > 10 |  |  |
| CNC1CCN(c2ccc(C(=O)Nc3cn4cc(C)nc(C)c4c3F)c3nn(C)cc23)CC1 [Compound 581, N-(8-fluoro-1,3-dimethyl-pyrrolo[1,2-a]-pyrazin-7-yl)-2-methyl-4-[4-(methylamino)-1-piperidyl]indazole-7-carboxamide] | 1 to 10 | 5.00 to 6.00 | < 5.00 | < 5.00 | 5.00 to 6.00 |  |  |  |  | > 10 | 1 to 10 |  |  |
| CCNC1CCN(c2cc(Cl)c(C(=O)Nc3cn4cc(C)nc(C)c4n3)c3nn(C)cc23)CC1 [Compound 348, 6-chloro-N-(6,8-dimethylimidazo-[1,2-a]pyrazin-2-yl)-4-[4-(ethylamino)-1-piperidyl]-2-methyl-indazole-7-carboxamide] | 1 to 10 | 5.00 to 6.00 | < 5.00 | < 5.00 | 5.00 to 6.00 |  |  |  |  | > 10 | 0.1 to 1 |  |  |
| CNC1CCC(Oc2ccc(C(=O)Nc3cc4cn(C)nc4cc3OC)c3nn(C)cc23)C1 (stereo not drawn) [Compound 603] | 1 to 10 | 6.00 to 7.00 | 5.00 to 6.00 |  |  |  |  | 5.00 to 6.00 | 6.00 to 7.00 |  |  | 1 to 10 | 0.1 to 1 |
| CCNC1CCN(c2ccc(C(=O)Nc3cc(Oc4ccccc4C#N)c4nc(C)cn4c3)c3nn(C)cc23)CC1 [Compound 315, N-[8-(2-cyano-phenoxy)-2-methyl-imidazo[1,2-a]pyridin-6-yl]-4-[4-(ethylamino)-1-piperidyl]-2-methyl-indazole-7-carboxamide] | 1 to 10 | < 5.00 | < 5.00 | < 5.00 | < 5.00 |  |  |  |  | > 10 | 1 to 10 |  |  |
| COc1cc2nn(C)cc2cc1NC(=O)c1c(F)cc(N2[C@@H]3CC[C@H]2C[C@H](NC2CC2)C3)c2cn(C)nc12 [Compound 429, 4-[(1S,5R)-3-(cyclopropyl-amino)-8-azabicyclo-[3.2.1]octan-8-yl]-6-fluoro-N-(6-methoxy-2-methyl-indazol-5-yl)-2-methyl-indazole-7-carboxamide] | 1 to 10 | 5.00 to 6.00 | 5.00 to 6.00 | 5.00 to 6.00 | 5.00 to 6.00 |  |  |  |  | > 10 | 1 to 10 |  |  |

Second part, led by results:

| GI50 [1] [µM] | pIC50 [2, 6] | pIC50 [3, 6] | pIC50 [4, 8] | pIC50 [5, 10] | pIC50 [2, 11] | pIC50 [3, 11] | pIC50 [4, 13] | pIC50 [5, 15] | SMILES | AC50 [4, 7] [µM] | AC50 [5, 9] [µM] | AC50 [4, 12] [µM] | AC50 [5, 14] [µM] |
| --- | --- | --- | --- | --- | --- | --- | --- | --- | --- | --- | --- | --- | --- |
| 0.1 to 1 | 5.00 to 6.00 | < 5.00 | < 5.00 | 5.00 to 6.00 |  |  |  |  | CC1OB(O)c2ccc(NC(=O)c3c(F)cc(N4CCC(NC5CC5)CC4)c4cn(C)nc34)cc21 (stereo not drawn) [Compound 558, 4-(4-(cyclopropyl-amino)piperidin-1-yl)-6-fluoro-N-(1-hydroxy-3-methyl-1,3-dihydrobenzo[c]-[1,2]oxaborol-5-y1)-2-methyl-2H-indazole-7-carboxamide hydrochloride] | > 10 | 1 to 10 |  |  |
| 1 to 10 |  |  |  |  | 5.00 to 6.00 | 5.00 to 6.00 | 5.00 to 6.00 | 5.00 to 6.00 | COc1nc2c(C(=O)Nc3cc4c(C)nc(C)cn4n3)ccc(N3C[C@H](C)N[C@@H](C)C3)c2s1 [Compound 710, 7-[(3S,5S)-3,5-dimethylpiperazin-1-yl]-N-(4,6-dimethylpyrazolo[1,5-a]pyrazin-2-yl)-2-methoxy-1,3-benzothiazole-4-carboxamide] |  |  | 1 to 10 | 1 to 10 |
| 0.1 to 1 | > 7.00 | 5.00 to 6.00 | 5.00 to 6.00 | > 7.00 |  |  |  |  | Cc1cn2cc(NC(=O)c3ccc(N4C[C@H](C)N[C@@H](C)C4)c4cn(C)nc34)cc(F)c2n1 [Compound 588, 4-[(3S, 5S)-3,5-dimethylpiperazin-1-yl]-N-(8-fluoro-2-methyl-imidazo[1,2-a]pyridin-6-yl)-2-methyl-indazole-7-carboxamide] | 1 to 10 | < 0.1 |  |  |
| 0.1 to 1 | 5.00 to 6.00 | < 5.00 | < 5.00 | 5.00 to 6.00 |  |  |  |  | COc1cc2nn(C)c(C)c2cc1NC(=O)c1c(F)cc(N2CCC(NC3CC3)CC2)c2cn(C)nc12 [Compound 418, 4-[4-(cyclopropylamino)-1-piperidyl]-6-fluoro-N-(6-methoxy-2,3-dimethyl-indazol-5-yl)-2-methyl-indazole-7-carboxamide] | > 10 | 0.1 to 1 |  |  |
| 1 to 10 |  |  |  |  | < 5.00 | < 5.00 | < 5.00 | < 5.00 | Cc1cn2cc(NC(=O)c3ccc(N4CCC(NC5CC5)CC4)c4cn(C)nc34)nc2c(CCN(C)C)n1 [Compound 776] |  |  | > 10 | > 10 |
| 1 to 10 |  |  |  |  | < 5.00 | < 5.00 | < 5.00 | < 5.00 | Cc1cn2cc(NC(=O)c3ccc(N4CCCCC4)c4cn(C)nc34)nc2c(CNS(C)(=O)=O)n1 [Compound 845] |  |  | > 10 | > 10 |
| 0.1 to 1 |  |  |  |  | 6.00 to 7.00 | 5.00 to 6.00 | 5.00 to 6.00 | 6.00 to 7.00 | Cc1cc2c(N3CCC(NC4CC4)CC3)ccc(C(=O)Nc3cc(CO)c4nn(C)cc4c3)n2n1 [Compound 858] |  |  | 1 to 10 | 0.1 to 1 |
| < 0.1 | > 7.00 | > 7.00 | > 7.00 | > 7.00 |  |  |  |  | Cc1cn2cc(NC(=O)c3c(F)cc(N4CCC(NC5CC5)CC4)c4cn(C)nc34)c(OC3CC3)c(F)c2n1 [Compound 382, N-[7-(cyclopropoxy)-8-fluoro-2-methyl-imidazo [1,2-a]-pyridin-6-yl]-4-[4-(cyclopropylamino)-1-piperidyl]-6-fluoro-2-methyl-indazole-7-carboxamide] | < 0.1 | < 0.1 |  |  |
| 0.1 to 1 |  |  |  |  | > 7.00 | 6.00 to 7.00 | 6.00 to 7.00 | > 7.00 | Cc1cn2cc(NC(=O)c3ccc(N4CCC(NC5CC5)CC4)c4cc(CO)nn34)cc(F)c2n1 [Compound 622] |  |  | 0.1 to 1 | 0.1 to 1 |
| 0.1 to 1 |  |  |  |  | > 7.00 | 6.00 to 7.00 | 6.00 to 7.00 | > 7.00 | COCc1cc2c(N3CCC(NC4CC4)CC3)ccc(C(=O)Nc3cc(F)c4nc(C)cn4c3)n2n1 [Compound 620, 4-[4-(cyclopropylamino)-1-piperidyl]-N-(8-fluoro-2-methyl-imidazo[1,2-a]pyridin-6-yl)-2-(methoxymethyl)-pyrazolo[1,5-a]pyridine-7-carboxamide] |  |  | 0.1 to 1 | 0.1 to 1 |
